According to PMC10570366, “Molecular mechanism of decision-making in glycosaminoglycan biosynthesis” (Nature Communications, 2023):

Columns and labels:
Assay type in all cases: biochemical
CHSY3/CHPF = target: T1, CHSY3/CHPF (Homo sapiens, UniProt Q70JA7); assay: HPLC and MS of glycopeptide product; settings: acceptor TetraP-BETA; 5 mM Mn2+; pH 7.5; 30 °C
T1 construct: soluble lumenal regions, His6 tags, obligate heterodimer co-expressed in Expi293F
T1 sequence (Q70JA7 29-882 limits assumed): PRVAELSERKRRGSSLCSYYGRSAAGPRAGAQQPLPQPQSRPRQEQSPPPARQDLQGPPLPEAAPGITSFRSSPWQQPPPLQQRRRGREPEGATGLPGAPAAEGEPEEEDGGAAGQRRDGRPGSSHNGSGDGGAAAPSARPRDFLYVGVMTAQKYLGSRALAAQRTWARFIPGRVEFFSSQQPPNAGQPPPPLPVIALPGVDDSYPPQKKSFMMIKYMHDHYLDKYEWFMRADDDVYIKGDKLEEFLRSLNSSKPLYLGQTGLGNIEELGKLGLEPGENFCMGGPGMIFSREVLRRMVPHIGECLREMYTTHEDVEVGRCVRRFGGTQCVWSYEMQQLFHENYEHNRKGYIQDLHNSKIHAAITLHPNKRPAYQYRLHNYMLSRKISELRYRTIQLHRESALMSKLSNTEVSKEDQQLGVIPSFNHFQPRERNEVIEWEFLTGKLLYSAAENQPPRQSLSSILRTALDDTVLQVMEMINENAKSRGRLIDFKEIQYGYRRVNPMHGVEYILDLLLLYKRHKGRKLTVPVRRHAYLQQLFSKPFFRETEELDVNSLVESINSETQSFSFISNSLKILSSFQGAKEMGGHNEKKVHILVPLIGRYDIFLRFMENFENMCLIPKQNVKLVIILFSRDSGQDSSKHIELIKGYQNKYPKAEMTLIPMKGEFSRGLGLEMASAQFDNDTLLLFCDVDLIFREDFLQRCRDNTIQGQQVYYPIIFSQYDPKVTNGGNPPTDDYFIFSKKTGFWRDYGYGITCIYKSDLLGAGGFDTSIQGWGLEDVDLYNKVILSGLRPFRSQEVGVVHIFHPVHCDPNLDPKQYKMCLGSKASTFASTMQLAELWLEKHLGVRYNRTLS
T1 sequence (Q8IZ52 35-775 partner): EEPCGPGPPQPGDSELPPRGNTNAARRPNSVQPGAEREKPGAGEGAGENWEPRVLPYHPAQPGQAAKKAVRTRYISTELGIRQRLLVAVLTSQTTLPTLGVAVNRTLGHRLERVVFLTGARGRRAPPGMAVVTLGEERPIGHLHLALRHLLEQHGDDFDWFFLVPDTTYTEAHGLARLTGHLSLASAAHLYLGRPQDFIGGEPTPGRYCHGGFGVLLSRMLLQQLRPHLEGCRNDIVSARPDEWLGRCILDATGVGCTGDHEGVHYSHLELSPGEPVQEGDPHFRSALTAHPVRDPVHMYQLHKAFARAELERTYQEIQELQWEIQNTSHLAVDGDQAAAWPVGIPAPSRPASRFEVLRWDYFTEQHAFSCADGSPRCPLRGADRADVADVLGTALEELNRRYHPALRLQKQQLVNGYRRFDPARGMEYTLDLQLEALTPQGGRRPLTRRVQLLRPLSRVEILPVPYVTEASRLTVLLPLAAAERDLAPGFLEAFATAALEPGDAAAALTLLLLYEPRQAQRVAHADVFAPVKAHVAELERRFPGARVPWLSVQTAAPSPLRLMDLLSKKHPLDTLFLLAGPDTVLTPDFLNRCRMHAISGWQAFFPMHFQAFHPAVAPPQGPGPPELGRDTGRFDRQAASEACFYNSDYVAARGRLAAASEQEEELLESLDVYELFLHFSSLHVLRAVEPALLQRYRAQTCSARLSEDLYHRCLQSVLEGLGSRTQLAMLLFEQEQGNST

MBP-CSGALNACT1 = target: T2, MBP-CSGALNACT1 (Homo sapiens, UniProt Q8TDX6); assay: UDP-Glo; settings: acceptor TetraP-peptides; 5 mM Mn2+; pH 7.5
T2 sequence (Q8TDX6 36-532 limits assumed): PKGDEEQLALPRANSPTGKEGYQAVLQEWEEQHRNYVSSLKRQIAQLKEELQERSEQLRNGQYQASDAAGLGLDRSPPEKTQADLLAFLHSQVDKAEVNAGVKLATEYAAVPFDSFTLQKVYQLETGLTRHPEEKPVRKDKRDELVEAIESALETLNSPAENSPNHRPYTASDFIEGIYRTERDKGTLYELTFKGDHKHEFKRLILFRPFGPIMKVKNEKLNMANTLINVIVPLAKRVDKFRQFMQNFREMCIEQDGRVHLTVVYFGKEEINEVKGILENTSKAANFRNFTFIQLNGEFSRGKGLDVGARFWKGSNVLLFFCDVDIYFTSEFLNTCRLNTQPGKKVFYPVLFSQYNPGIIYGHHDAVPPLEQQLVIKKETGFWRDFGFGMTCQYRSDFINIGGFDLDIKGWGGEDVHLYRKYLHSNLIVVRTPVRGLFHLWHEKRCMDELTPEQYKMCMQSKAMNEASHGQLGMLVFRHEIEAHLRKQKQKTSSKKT

EXT1/EXT2 = target: T3, EXT1/EXT2 (Homo sapiens, UniProt Q16394+Q93063); assay: HPLC and MS of glycopeptide product; settings: acceptor GlcNAc-TetraP-BETA; Mn2+; pH 7.5
T3 construct: soluble lumenal regions, FLAG-EXT1/His-EXT2 heterodimer co-expressed in Expi293F
T3 sequence (Q16394 29-746 limits assumed): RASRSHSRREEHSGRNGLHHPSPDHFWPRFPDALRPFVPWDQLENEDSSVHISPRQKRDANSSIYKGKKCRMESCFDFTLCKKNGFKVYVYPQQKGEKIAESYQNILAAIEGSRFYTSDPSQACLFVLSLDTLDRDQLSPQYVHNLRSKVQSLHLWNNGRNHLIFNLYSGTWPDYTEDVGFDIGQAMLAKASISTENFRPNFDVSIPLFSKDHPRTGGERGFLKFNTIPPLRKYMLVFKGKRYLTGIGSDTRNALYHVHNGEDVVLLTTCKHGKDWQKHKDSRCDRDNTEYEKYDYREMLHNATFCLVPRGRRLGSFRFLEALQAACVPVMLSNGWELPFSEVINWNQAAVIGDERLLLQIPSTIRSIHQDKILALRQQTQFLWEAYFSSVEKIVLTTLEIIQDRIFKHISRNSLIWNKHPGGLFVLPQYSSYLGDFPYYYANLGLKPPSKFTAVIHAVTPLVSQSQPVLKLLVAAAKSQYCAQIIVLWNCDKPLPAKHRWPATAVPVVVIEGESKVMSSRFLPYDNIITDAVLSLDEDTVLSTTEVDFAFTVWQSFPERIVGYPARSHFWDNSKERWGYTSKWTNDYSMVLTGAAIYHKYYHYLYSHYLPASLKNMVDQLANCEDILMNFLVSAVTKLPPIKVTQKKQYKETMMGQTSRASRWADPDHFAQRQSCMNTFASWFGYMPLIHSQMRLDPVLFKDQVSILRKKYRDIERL
T3 sequence (Q93063 47-718 limits assumed): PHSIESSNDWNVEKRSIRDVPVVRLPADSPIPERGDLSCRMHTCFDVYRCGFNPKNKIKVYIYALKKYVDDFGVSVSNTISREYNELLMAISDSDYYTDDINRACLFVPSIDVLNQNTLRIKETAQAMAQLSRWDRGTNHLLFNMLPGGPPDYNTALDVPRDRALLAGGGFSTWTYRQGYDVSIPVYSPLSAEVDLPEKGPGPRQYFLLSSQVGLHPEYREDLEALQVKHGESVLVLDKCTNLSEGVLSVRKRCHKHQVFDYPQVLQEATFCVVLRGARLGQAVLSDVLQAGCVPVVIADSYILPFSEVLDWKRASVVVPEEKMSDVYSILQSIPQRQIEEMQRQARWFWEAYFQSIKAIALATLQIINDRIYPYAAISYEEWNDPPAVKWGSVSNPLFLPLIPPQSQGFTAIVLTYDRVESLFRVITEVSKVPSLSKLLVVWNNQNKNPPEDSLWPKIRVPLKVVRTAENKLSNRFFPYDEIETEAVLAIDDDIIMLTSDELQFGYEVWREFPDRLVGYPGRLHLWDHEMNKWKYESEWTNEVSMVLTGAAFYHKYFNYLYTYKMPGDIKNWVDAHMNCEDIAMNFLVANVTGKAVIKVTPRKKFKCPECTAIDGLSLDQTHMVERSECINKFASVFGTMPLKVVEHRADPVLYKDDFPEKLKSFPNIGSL

B3GAT3 = target: T4, B3GAT3 (Homo sapiens, UniProt O94766); assay: one-pot enzymatic synthesis, HPLC and MS; settings: acceptor Gal-Gal-Xyl-BKN; 25 mM Mn2+; pH 7.5; 30 °C
T4 sequence (O94766 29-335 limits assumed): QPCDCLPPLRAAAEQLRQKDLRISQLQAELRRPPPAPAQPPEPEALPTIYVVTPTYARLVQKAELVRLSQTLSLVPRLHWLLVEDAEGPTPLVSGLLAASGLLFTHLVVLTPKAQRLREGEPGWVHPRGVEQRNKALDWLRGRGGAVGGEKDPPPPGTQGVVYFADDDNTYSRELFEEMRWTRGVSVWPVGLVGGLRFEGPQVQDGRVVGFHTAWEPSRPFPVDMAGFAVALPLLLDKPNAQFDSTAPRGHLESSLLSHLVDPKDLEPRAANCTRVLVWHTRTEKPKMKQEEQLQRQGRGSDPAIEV

Compound | HPLC and MS of glycopeptide product (CHSY3/CHPF) | UDP-Glo (MBP-CSGALNACT1) | HPLC and MS of glycopeptide product (EXT1/EXT2) | one-pot enzymatic synthesis, HPLC and MS (B3GAT3)
CC(=O)N[C@H]1[C@@H](OP(=O)(O)OP(=O)(O)OC[C@H]2O[C@@H](n3ccc(=O)[nH]c3=O)[C@H](O)[C@@H]2O)O[C@H](CO)[C@H](O)[C@@H]1O [UDP-GalNAc] | CHSY3/CHPF was able to transfer GalNAc onto TetraP-BETA | A similar behaviour was confirmed for CSGALNACT1 | – | –
O=C(O)[C@H]1O[C@H](OP(=O)(O)OP(=O)(O)OC[C@H]2O[C@@H](n3ccc(=O)[nH]c3=O)[C@H](O)[C@@H]2O)[C@H](O)[C@@H](O)[C@@H]1O [UDP-GlcA] | – | – | both enzymes are able to catalyse the addition of a sixth sugar, forming GlcA-GlcNAc-TetraP-BETA | all four GTs but without FAM20B gave the unphosphorylated linker glycopeptide, GlcA-Gal-Gal-Xyl-BKN (Tetra-BKN)
